Experimental data reported in patent publication US20220251084A1, “PROGRANULIN MODULATORS AND METHODS OF USING THE SAME” (ARKUDA THERAPEUTICS, priority 2019, published 2022).
Counter-ions that a name gives are not always drawn.

The compounds below were run on progranulin (PGRN) secretion, BV-2 cells (assay: PGRN assay: progranulin induction cellular assay (ELISA of secreted mouse PGRN)). Details: Mus musculus, BV-2, PGRN assay, Table C; secreted mouse PGRN in cell culture medium, ELISA.
Type: cell-based
Outline: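 Progranulin induction measured in BV-2 cells plated at about 80% confluence the day before, given 1 h to attach, then incubated 16 h. Secreted mouse PGRN quantified by ELISA.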

Structure (SMILES)	EC50
O=C(N1CCc2ccccc2[C@@H]1c1ccc(F)cc1)C(F)(F)C1(O)CN2CCC1CC2 (stereo partly drawn) [Compound 2198, 2,2-difluoro-1-((S)-1-(4-fluorophenyl)-3,4-dihydroisoquinolin-2(1H)-yl)-2-(3-hydroxyquinuclidin-3-yl)ethan-1-one]	> 10000 nM

Same assay, conditions: Mus musculus, BV-2, PGRN assay, Table D; secreted mouse PGRN in cell culture medium, ELISA

EC50	Structure (SMILES)
650 nM	O=C(O[C@H]1C[N@]2CC[C@H]1C2)N1CCc2ccccc2[C@@H]1c1ccc(F)cc1 [Compound 2204]
7830 nM	O=C(NC[C@@H]1CCCNC1)N1CCc2ccccc2[C@@H]1c1ccc(F)cc1 [Compound 2221]
1580 nM	O=C(N[C@@H]1CCNC1)N1CCc2ccccc2[C@@H]1c1ccc(F)cc1 [Compound 2223]
1040 nM	O=C(NCC1(F)CNC1)N1CCc2ccccc2[C@@H]1c1ccc(F)cc1 [Compound 2231]
720 nM	CN1CCC(NC(=O)N2CCc3ccccc3[C@@H]2c2ccc(F)cc2)CC1 [Compound 2238, (S)-1-(4-fluorophenyl)-N-(1-methylpiperidin-4-yl)-3,4-dihydroisoquinoline-2(1H)-carboxamide]
3950 nM	O=C(O[C@@H]1CNCC1(F)F)N1CCc2ccccc2[C@@H]1c1ccc(F)cc1 [Compound 2242]
770 nM	O=C(OCC1CNC1)N1CCc2ccccc2[C@@H]1c1ccc(F)cc1 [Compound 2246, Azetidin-3-ylmethyl (S)-1-(4-fluorophenyl)-3,4-dihydroisoquinoline-2(1H)-carboxylate 2,2,2-trifluoroacetate]
100 nM	CN1CC[C@@H](OC(=O)N2CCc3ccccc3[C@@H]2c2ccc(F)cc2)C1 [Compound 2250, (R)-1-methylpyrrolidin-3-yl (S)-1-(4-fluorophenyl)-3,4-dihydroisoquinoline-2(1H)-carboxylate hydrochloride]
110 nM	CN(C(=O)N1CCc2ccccc2[C@@H]1c1ccc(F)cc1)[C@@H]1CCNC1 [Compound 2253, 1-(4-fluorophenyl)-N-methyl-((R)-pyrrolin-3-yl)-3,4-dihydroisoquinoline-2(1H)-carboxamide]
730 nM	O=C(O[C@@H]1CNCCOC1)N1CCc2ccccc2[C@@H]1c1ccc(F)cc1 [Compound 2260]
> 10000 nM	CN1CCN(C(=O)N2CCc3ccccc3[C@@H]2c2ccc(F)cc2)CC(F)(F)C1 [Compound 2261, (S)-(6,6-difluoro-4-methyl-1,4-diazepan-1-yl)(1-(4-fluorophenyl)-3,4-dihydroisoquinolin-2(1H)-yl)methanone hydrochloride]
1280 nM	O=C(O[C@H]1CNCCOC1)N1CCc2ccccc2[C@@H]1c1ccc(F)cc1 [Compound 2263]
286 nM	CN1CC[C@@H](N(C)C(=O)N2CCc3ccccc3[C@@H]2c2ccc(F)cc2)C1 [Compound 2265]
656 nM	CN1CCCN(C(=O)N2CCc3ccccc3[C@@H]2c2ccc(F)cc2)CC1 [Compound 2269, (S)-(1-(4-fluorophenyl)-3,4-dihydroisoquinolin-2(1H)-yl)(4-methyl-1,4-diazepan-1-yl)methanone]
2030 nM	O=C(O[C@H]1CCNC1)N1CCc2ccccc2[C@H]1c1ccc(F)cc1 [Compound 2272]
273 nM	O=C(N[C@@H]1CNCC12CC2)N1CCc2ccccc2[C@@H]1c1ccc(F)cc1 [Compound 2281]
> 10000 nM	CN1CC(CNC(=O)N2CCc3ccccc3[C@@H]2c2ccc(F)cc2)C1 [Compound 2282]

The remaining lines, values behind:

Structure (SMILES)	EC50
O=C(OCC[C@@H]1CN2CCC1CC2)N1CCc2ccccc2[C@@H]1c1ccc(F)cc1 [Compound 2206, 2-((S)-quinuclidin-3-yl)ethyl (S)-1-(4-fluorophenyl)-3,4-dihydroisoquinoline-2(1H)-carboxylate formate]	1990 nM
O=C(NC1(C2CCNCC2)CC1)N1CCc2ccccc2[C@@H]1c1ccc(F)cc1 [Compound 2208]	7220 nM
O=C(NC[C@@H]1CNCCO1)N1CCc2ccccc2[C@@H]1c1ccc(F)cc1 [Compound 2209]	730 nM
CN1CCC(C2(OC(=O)N3CCc4ccccc4[C@@H]3c3ccc(F)cc3)CC2)CC1 [Compound 2215]	2700 nM
O=C(NC[C@H]1CCCN1)N1CCc2ccccc2[C@@H]1c1ccc(F)cc1 [Compound 2216]	2670 nM
O=C(NC[C@@H]1CCCN1)N1CCc2ccccc2[C@@H]1c1ccc(F)cc1 [Compound 2217]	3940 nM
O=C(NC[C@@H]1CCCN1)N1CCc2ccccc2[C@H]1c1ccc(F)cc1 [Compound 2218]	3950 nM
O=C(N[C@H]1CCNC1)N1CCc2ccccc2[C@@H]1c1ccc(F)cc1 [Compound 2222]	940 nM
CN1[C@@H]2CC[C@H]1[C@@H](NC(=O)N1CCc3ccccc3[C@@H]1c1ccc(F)cc1)C2 [Compound 2224]	480 nM
CN1[C@H]2CC[C@@H]1[C@@H](NC(=O)N1CCc3ccccc3[C@@H]1c1ccc(F)cc1)C2 [Compound 2226]	2680 nM
CN1[C@@H]2CC[C@H]1[C@H](NC(=O)N1CCc3ccccc3[C@@H]1c1ccc(F)cc1)C2 [Compound 2227]	4150 nM
O=C(OC[C@@H]1CCNC1)N1CCc2ccccc2[C@@H]1c1ccc(F)cc1 [Compound 2230]	1070 nM
CN1CC[C@H](NC(=O)N2CCc3ccccc3[C@@H]2c2ccc(F)cc2)C1 [Compound 2237, (S)-1-(4-fluorophenyl)-N—((S)-1-methylpyrrolidin-3-yl)-3,4-dihydroisoquinoline-2(1H)-carboxamide]	430 nM
O=C(OC[C@@H]1CCN1)N1CCc2ccccc2[C@@H]1c1ccc(F)cc1 [Compound 2239, (S)-(S)-azetidin-2-ylmethyl 1-(4-fluorophenyl)-3,4-dihydroisoquinoline-2(1H)-carboxylate]	1140 nM
O=C(OC[C@H]1CCN1)N1CCc2ccccc2[C@@H]1c1ccc(F)cc1 [Compound 2240]	2390 nM
O=C(O[C@H]1CNCC1(F)F)N1CCc2ccccc2[C@@H]1c1ccc(F)cc1 [Compound 2241]	8790 nM
CN1CC[C@@H](NC(=O)N2CCc3ccccc3[C@@H]2c2ccc(F)cc2)C1 [Compound 2245]	460 nM
CN1CCC(OC2(C(=O)N3CCc4ccccc4[C@@H]3c3ccc(F)cc3)CC2)CC1 [Compound 2247]	> 10000 nM

Structure (SMILES)	EC50
CN(C(=O)N1CCc2ccccc2[C@@H]1c1ccc(F)cc1)[C@H]1CCNC1 [Compound 2248]	1240 nM
CN1CC[C@H](OC(=O)N2CCc3ccccc3[C@@H]2c2ccc(F)cc2)C1 [Compound 2251]	110 nM
O=C(N1CCN2CCC1CC2)N1CCc2ccccc2[C@@H]1c1ccc(F)cc1 [Compound 2252]	120 nM
O=C(OC[C@]1(F)CCNC1)N1CCc2ccccc2[C@@H]1c1ccc(F)cc1 [Compound 2256]	170 nM
O=C(NCC1CNC1)N1CCc2ccccc2[C@@H]1c1ccc(F)cc1 [Compound 2257, (S)—N-(azetidin-3-ylmethyl)-1-(4-fluorophenyl)-3,4-dihydroisoquinoline-2(1H)-carboxamide acetate]	550 nM
O=C(OCC1(F)CNC1)N1CCc2ccccc2[C@@H]1c1ccc(F)cc1 [Compound 2258]	270 nM
O=C1N[C@H](CNC(=O)N2CCc3ccccc3[C@@H]2c2ccc(F)cc2)CO1 [Compound 2259, (S)-1-(4-fluorophenyl)-N—(((R)-2-oxooxazolidin-4-yl)methyl)-3,4-dihydroisoquinoline-2(1H)-carboxamide]	> 10000 nM
O=C(N1CCNCC(F)(F)C1)N1CCc2ccccc2[C@@H]1c1ccc(F)cc1 [Compound 2262, (S)-(6,6-difluoro-1,4-diazepan-1-yl)(1-(4-fluorophenyl)-3,4-dihydroisoquinolin-2(1H)-yl)methanone]	> 10000 nM
O=C(N1CCCNCC1)N1CCc2ccccc2[C@@H]1c1ccc(F)cc1 [Compound 2264, (S)-(1,4-diazepan-1-yl)(1-(4-fluorophenyl)-3,4-dihydroisoquinolin-2(1H)-yl)methanone]	1060 nM
O=C(O[C@@H]1CCNC1)N1CCc2ccccc2[C@H]1c1ccc(F)cc1 [Compound 2266, (R)-pyrrolidin-3-yl (R)-1-(4-fluorophenyl)-3,4-dihydroisoquinoline-2(1H)-carboxylate]	255 nM
CN1CCC(C(O)C(=O)N2CCc3ccccc3[C@@H]2c2ccc(F)cc2)C1 (stereo partly drawn) [Compound 2267, 1-((S)-1-(4-fluorophenyl)-3,4-dihydroisoquinolin-2(1H)-yl)-2-hydroxy-2-(1-methylpyrrolidin-3-yl)ethanone]	130 nM
CC1(C)CNC[C@@H]1NC(=O)N1CCc2ccccc2[C@@H]1c1ccc(F)cc1 [Compound 2268]	180 nM
CN1CC[C@H](N(C)C(=O)N2CCc3ccccc3[C@@H]2c2ccc(F)cc2)C1 [Compound 2270, (S)-1-(4-fluorophenyl)-N-methyl-N—((S)-1-methylpyrrolidin-3-yl)-3,4-dihydroisoquinoline-2(1H)-carboxamide]	515 nM
CC1(C)CNC[C@H]1NC(=O)N1CCc2ccccc2[C@@H]1c1ccc(F)cc1 [Compound 2273]	319 nM
CN1CCC(C(=O)C(=O)N2CCc3ccccc3[C@@H]2c2ccc(F)cc2)C1 (stereo partly drawn) [Compound 2274, 1-((S)-1-(4-fluorophenyl)-3,4-dihydroisoquinolin-2(1H)-yl)-2-(1-methylpyrrolidin-3-yl)ethane-1,2-dione]	1400 nM
NC[C@@H]1CCN(C(=O)N2CCc3ccccc3[C@@H]2c2ccc(F)cc2)C1 [Compound 2279, ((S)-3-(aminomethyl)pyrrolidin-1-yl)((S)-1-(4-fluorophenyl)-3,4-dihydroisoquinolin-2(1H)-yl)methanone]	428 nM
O=C(N[C@H]1CNCC12CC2)N1CCc2ccccc2[C@@H]1c1ccc(F)cc1 [Compound 2280]	1180 nM
CN(CC1CNC1)C(=O)N1CCc2ccccc2[C@@H]1c1ccc(F)cc1 [Compound 2283, (S)—N-(azetidin-3-ylmethyl)-1-(4-fluorophenyl)-N-methyl-3,4-dihydroisoquinoline-2(1H)-carboxamide]	> 10000 nM

Same assay, conditions: PGRN assay, Table D; secreted mouse PGRN in cell culture medium, ELISA

EC50	Structure (SMILES)
2910 nM	CN(C(=O)N1CCc2ccccc2[C@H]1c1ccc(F)cc1)[C@H]1CCNC1 [Compound 2254]
